Literature values, collected in patent US20160022623A1, “COMPOSITION AND USE” (THE UNIVERSITY OF NOTTINGHAM, priority 2013, published 2016).

Experiments:
[1] = 24 weeks
[2] = compared to control (euglycaemic hyperinsulinaemia)
[3] = morning following the clamp, overnight fast

Increase in skeletal muscle total carnitine content (intravenous infusion, 6 h clamp, at rest): 15% | Increase in muscle total carnitine content compared to carbohydrate feeding alone ([1]; 1.36 g L-carnitine with 80 g carbohydrate beverage twice daily): 30% | Increase in muscle free carnitine availability ([1]; low intensity exercise (50% VO2max), vs Control): 80%
SMILES: C[N+](C)(C)C[C@H](O)CC(=O)[O-] [L-carnitine]
Decrease in insulin stimulated muscle PDC activation [2]: 30% | Decrease in muscle lactate accumulation [2]: 40% | Increase in muscle glycogen content [3]: 30% | Increase in muscle long-chain acyl-CoA content [3]: 40% | Reduction in muscle glycogen utilisation ([1]; low intensity exercise (50% VO2max)): 50%
